In US12071437B1, “Pyrazolo[1,5-a]pyrido[4,3-e]pyrimidine-2-carboxylic acids as CK2 inhibitors” (KING FAISAL UNIVERSITY, priority 2024, dated 2024) one finds IC50 data, which are given here for one compound.

Structures are written as SMILES.

Assay [1] relates to PC3 (prostate) cancer cells. Kind of assay: In vitro cytotoxic activity MTT assay, PC3. Format: cell-based. The following applies: Homo sapiens, PC-3, 96 hours exposure, 50% inhibition of cell proliferation, read-out: Cytotoxicity activity IC50, PC3 (prostate). As for the experimental part: (§1) Compounds 1-16 were screened for their in vitro cytotoxic activity utilizing a 3-(4,5-dimethyl-thiazol-2-yl)-2,5-diphenyltetrazolium bromide (MTT) assay against selected cancer human cell lines consisting of PC3 (prostate), HCT116 (colon), A375 (melanoma), H1299 (lung), MIAPaCa-2 (pancreas), HL60 (leukemia), MCF7 (breast), MDA-MB-231 (breast) (T. Mosmann, J. Immunol. Meth., 1983, 65, 55-63). The cells were cultured at 37° C. in RMPI1640 medium supplemented with 10% fetal bovine serum, 50 IU/mL penicillin, and 50 μg/mL streptomycin in a 5% CO2 incubator. All cells were sub-cultured 3 times/week by trypsinisation. Viable cells were seeded and allowed to adhere for 12 hours before a test drug was added in 96-well plates at an initial density of 1.0×10^5 cells/mL. Tumor cell lines were separately exposed to various concentrations of the tested compounds followed by incubation at a temperature of 37° C. during 96 hours inside a medium of fresh RMPI1640. Cells were subsequently incubated at 37° ° C. using MTT at 0.5 mg/mL during 4 hours. After removal of supernatant, formazan crystals were dissolved in isopropanol and the optical density was measured at 570 nm. CX-4945 was used as a positive control.
On the technique in general: Tetrazolium assays rely on reduction of a dye to a coloured formazan, in cell work by metabolically active cells.

For assay [2], the system named is HCT116 (colon) cancer cells. Kind of assay: In vitro cytotoxic activity MTT assay, HCT116. Format: cell-based. The settings on record: Homo sapiens, HCT-116, 96 hours exposure, 50% inhibition of cell proliferation, read-out: Cytotoxicity activity IC50, HCT116 (colon). The procedure:
as §1

The subject of assay [3] is A375 (melanoma) cancer cells. Kind of assay: In vitro cytotoxic activity MTT assay, A375. Format: cell-based. The settings on record: Homo sapiens, A-375, 96 hours exposure, 50% inhibition of cell proliferation, read-out: Cytotoxicity activity IC50, A375 (melanoma). As for the experimental part:
as §1

Assay [4] relates to H1299 (lung) cancer cells. Kind of assay: In vitro cytotoxic activity MTT assay, H1299. Format: cell-based. The settings on record: Homo sapiens, NCI-H1299, 96 hours exposure, 50% inhibition of cell proliferation, read-out: Cytotoxicity activity IC50, H1299 (lung). As for the experimental part:
as §1

In assay [5] the test system is MIAPaCa-2 (pancreas) cancer cells. Description: In vitro cytotoxic activity MTT assay, MIAPaCa-2. Format: cell-based. The following applies: Homo sapiens, MIA PaCa-2; MIAPaCa-2 cells, 96 hours exposure, 50% inhibition of cell proliferation; read-out: Cytotoxicity activity IC50, MIAPaCa-2 (pancreas). As for the experimental part: as §1
Assay [6] deals with HL60 (leukemia) cancer cells. Description: In vitro cytotoxic activity MTT assay, HL60. Type of assay: cell-based. The settings on record: Homo sapiens, HL-60, 96 hours exposure, 50% inhibition of cell proliferation, read-out: Cytotoxicity activity IC50, HL60 (leukemia). The procedure: as §1
In assay [7] the test system is MCF7 (breast) cancer cells. Description: In vitro cytotoxic activity MTT assay, MCF7. Format: cell-based. The settings on record: Homo sapiens, 96 hours exposure, 50% inhibition of cell proliferation, read-out: Cytotoxicity activity IC50, MCF7 (breast). The procedure: as §1
The subject of assay [8] is MDA-MB-231 (breast) cancer cells. Kind of assay: In vitro cytotoxic activity MTT assay, MDA-MB-231. Format: cell-based. The following applies: Homo sapiens; MDA-MB-231 cells, 96 hours exposure, 50% inhibition of cell proliferation; read-out: Cytotoxicity activity IC50, MDA-MB-231 (breast). As for the experimental part: as §1
For assay [9], the target named is T1, recombinant human CK2 (RRββ-holoenzyme) (Homo sapiens, UniProt P68400).
T1 construct: purchased Millipore
Kind of assay: CK2 Kinase Assay (33P-ATP, substrate peptide RRRDDDSDDD). The settings on record: final ATP 15 μM, 10 min at 30° C., read-out: protein kinase CK2 inhibition IC50. Format: biochemical. The procedure:
CK2 Kinase Assay was conducted using the protocol as described in Pierre F. et al; J. Med. Chem. 2011, 54, 635-654. The tested compounds in aqueous solution were added at a volume of 10 μL to a reaction mixture comprising 10 μL of assay dilution buffer (ADB; 20 mM MOPS, pH 7.2, 25 mM β-glycerol phosphate, 5 mM EGTA, 1 mM sodium orthovanadate, and 1 mM dithiothreitol), 10 μL of substrate peptide (RRRDDDSDDD, dissolved in ADB at a concentration of 1 mM), 10 μL of recombinant human CK2 (RRββ-holoenzyme, 25 ng dissolved in ADB; Millipore). Reactions were initiated by the addition of 10 μL of ATP solution (90% 75 mMMgCl2, 75 μM ATP (final ATP concentration: 15 μM) dissolved in ADB; 10% [γ-33P] ATP (stock 1 mCi/100 μL; 3000 Ci/mmol (Perkin-Elmer) and maintained for 10 min at 30° C. The reactions were quenched with 100 μL of 0.75% phosphoric acid and then transferred to and filtered through a phosphor cellulose filter plate (Millipore). After washing each well five times with 0.75% phosphoric acid, the plate was dried under vacuum for 5 min and, following the addition of 15 μL of scintillation fluid to each well, the residual radioactivity was measured using a Wallac […]. The IC50 values were derived from eight concentrations of test inhibitors.

T1 sequence (P68400 whole entry): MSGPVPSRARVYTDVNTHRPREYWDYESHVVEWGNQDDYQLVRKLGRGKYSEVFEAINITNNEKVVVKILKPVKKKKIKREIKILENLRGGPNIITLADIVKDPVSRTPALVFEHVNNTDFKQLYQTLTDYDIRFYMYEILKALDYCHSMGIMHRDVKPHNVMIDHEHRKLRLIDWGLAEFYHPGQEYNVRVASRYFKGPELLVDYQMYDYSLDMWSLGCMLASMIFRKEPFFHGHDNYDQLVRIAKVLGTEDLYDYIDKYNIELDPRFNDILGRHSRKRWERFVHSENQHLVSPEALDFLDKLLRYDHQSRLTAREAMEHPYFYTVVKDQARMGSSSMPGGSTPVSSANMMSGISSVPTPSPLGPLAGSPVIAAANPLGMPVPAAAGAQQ
T1 sequence (P67870 whole entry partner): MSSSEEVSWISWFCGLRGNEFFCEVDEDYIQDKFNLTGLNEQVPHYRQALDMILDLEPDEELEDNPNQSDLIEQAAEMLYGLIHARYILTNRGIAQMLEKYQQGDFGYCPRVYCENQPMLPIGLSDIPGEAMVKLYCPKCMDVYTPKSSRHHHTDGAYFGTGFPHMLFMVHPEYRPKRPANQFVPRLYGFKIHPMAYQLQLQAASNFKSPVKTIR

One may read the IC50 as the concentration that inhibits the measured activity by half. For the compound `O=C(O)c1cc2nc(Nc3cccc(Cl)c3)c3ccncc3n2n1` [Compound 1, 5-((3-Chlorophenyl)Amino)Pyrazolo[1,5-a]Pyrido[4,3-e]Pyrimidine-2-Carboxylic Acid], the IC50 in assay [1] was 1700 nM; in assay [2], 1600 nM; in assay [3], 4500 nM; in assay [4], 1900 nM; in assay [5] it was 1300 nM; in assay [6], 3200 nM. The IC50 is 5400 nM in assay [7], 4800 nM in assay [8] and 72 nM in assay [9].
